In patent publication US7173047B2, “Benzo (f) insoindol derivatives and their use as ep4 receptor ligands” (Glaxo Group Limited, priority 2000, dated 2007):

What follows are compounds tested against T1, human EP4 receptor (Homo sapiens, UniProt P35408) (assay: [125I]cAMP Scintillation Proximity Assay (EP4 antagonist assay, HEK-293 cells expressing recombinant human EP4 receptor)). Conditions: method of Arunlakshana and Schild, read-out: pKb (antagonist affinity) (converted).
Format: cell-based
Parameters: expressed in transfected cells
Description: The CAMP assay utilises HEK-293 cells expressing the recombinant human EP4 receptor, obtained from Receptor Biology, Inc. Beltsville, Md., USA. The cells were cultured in Dulbecco's Modified Eagle Medium—HAM F12 mix (DMEM-F12), containing 10% heat inactivated-foetal bovine serum (FBS) and 2 mM L-glutamine. The cells were either passaged into fresh medium or used in an assay once 90% confluency as determined visually had been achieved.
The cells were harvested by treatment with Versene, re-suspended in fresh culture medium and plated out to yield approximately 10,000 cells per well of a 96-well plate for overnight culture in culture medium additionally supplemented with 3 μM indomethacin. For assay, the culture medium was replaced with assay medium (DMEM-F12 containing 300 μM isobutylmethylxanthine (IBMX) and 3 μM indomethacin) and incubated for 30 minutes. Following this, antagonist was then added at various concentrations such that an entire agonist concentration-effect curve could be obtained in the presence of a single concentration of the antagonist. […] The amount of cAMP in each well was then determined by [^125I]cAMP scintillation proximity assay using a proprietary kit, obtained from Amersham, Buckinghamshire, UK, and according to the manufacturers instructions.
Data from cAMP assays were expressed as pmol CAMP per well. […]

T1 sequence (P35408 whole entry): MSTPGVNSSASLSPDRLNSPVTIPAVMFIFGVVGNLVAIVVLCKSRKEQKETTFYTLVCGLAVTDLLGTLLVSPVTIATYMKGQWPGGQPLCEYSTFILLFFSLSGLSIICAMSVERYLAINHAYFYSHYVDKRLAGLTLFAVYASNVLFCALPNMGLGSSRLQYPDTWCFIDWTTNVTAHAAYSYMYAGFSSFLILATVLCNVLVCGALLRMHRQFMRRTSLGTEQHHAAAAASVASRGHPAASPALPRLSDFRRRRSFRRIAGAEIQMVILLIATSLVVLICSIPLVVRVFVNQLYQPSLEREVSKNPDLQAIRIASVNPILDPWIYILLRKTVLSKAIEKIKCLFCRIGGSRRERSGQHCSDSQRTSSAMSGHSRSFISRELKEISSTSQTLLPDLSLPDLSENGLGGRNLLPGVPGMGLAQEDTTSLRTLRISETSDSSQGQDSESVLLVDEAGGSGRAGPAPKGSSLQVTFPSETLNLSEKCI

| Kb [nM] | Structure (SMILES) |
| --- | --- |
| ≤ 100 | CCOc1c2c(c(OCC)c3ccccc13)C(=O)N(c1ccc(CC(=O)NS(=O)(=O)c3ccccc3)cc1)C2 [Example 3, N-{2-[4-(4,9-diethoxy-1-oxo-1,3-dihydro-2H-benzo[f]isoindol-2-yl)phenyl]acetyl}benzenesulfonamide] |
| ≤ 100 | CCOc1c2c(c(OCC)c3ccccc13)C(=O)N(c1ccc(CC(=O)NS(=O)(=O)c3ccc(F)cc3)cc1)C2 [Example 1, N-{[4-(4,9-diethoxy-1-oxo-1,3-dihydro-2H-benzo[f]isoindol-2-yl)phenyl]acetyl}-4-fluorobenzenesulfonamide] |

What follows are compounds tested against T1, human EP4 receptor (assay: Human EP4 Scintillation Proximity Assay ([3H]-prostaglandin E2 radioligand binding)). Conditions: membranes of CHO cells expressing human EP4 receptor; 1.25 nM [3H]-prostaglandin E2; pKi from IC50 by Cheng-Prusoff; read-out: pKi at EP4 receptors (converted).
Parameters: expressed in transfected cells; host or cells: CHO cells infected with Semliki Forest Virus (SFV-1) particles; membranes
Text: Quantification of radioligand binding by scintillation proximity assay (SPA) is a long-established principle. Briefly, the affinity of compounds for a receptor is assesssed by the specific competition between known quantities of radiolabelled ligand and compound for that receptor. Increasing concentrations of compound reduce the amount of radiolabel that binds to the receptor. This gives rise to a diminshing scintillation signal from SPA beads coated with membranes that bear the receptor. The signal may be detected with a suitable scintillation counter and the data generated may be analysed with suitable curve-fitting software.
The human EP4 SPA assay (hereafter referred to as ‘the assay’) utilises membranes prepared from Chinese Hamster Ovary (CHO cells) infected with Semilki Forest Virus (SFV). Genetically engineered SFV-1 viral particles containing the genetic sequence of the human EP4 receptor were used to infect CHO cells resulting in expression of the receptor protein in cellular membranes. Cells washed free of media are homogenised in a pH-buffered medium containing peptidase inhibitors. A suitable buffer is of the following composition: 50 mM HEPES, 1 mM EDTA, 25 μg/ml bacitracin, 100 μM leupeptin, 1 mM PMSF, 2 μM Pepstatin A, pH adjusted to 7.4 with KOH. Following removal of cell debris by a low-speed centrifugation, a pellet of membranes is prepared by a high-speed (48000 g) centrifugation of the resulting supernatant. Membrane suspensions such as that described may be stored at −80° C. until used.
For assay, membranes expressing human EP4 receptors are diluted in a pH-buffered medium and mixed with SPA beads coated with a suitable substance to facilitate the adhesion of membranes to the beads. The concentrations of membrane protein and SPA beads chosen should result in SPA binding signal of at least 300 corrected counts per minute (CCPM) when tritiated radioligand at a concentration close to its Kd (affinity value) is combined with the mixture. Non-specific binding (nsb) may be determined by competition between the radiolabelled ligand and a saturating concentration of unlabelled ligand. In order to quantify the affinity of EP4 receptor ligands, compounds are diluted in a stepwise manner across the wells of a 96-well plate. Radioligand, compound, and unlabelled ligand are then added to a 96-well plate suitable for the measurement of SPA binding signals prior to the addition of bead/membrane mixture to initiate the binding reaction. Equilibrium may be achieved by incubation at room temperature for 120 minutes prior to scintillation counting. The data so generated may be analysed by means of a computerised curve-fitting routine in order to quantify the concentration of compound that displaces 50% of the specific radioligand binding (IC50). The affinity (pKi) of the compound may be calculated from the IC50 by application of the Cheng-Prusoff correction. Suitable reagents and protocols are: reaction buffer containing 50 mM HEPES, 10 mM MgCl2, pH adjusted to 7.4 with KOH; SPA beads coated with wheatgerm agglutinin; 1.25 nM [^3H]-prostaglandin E2 as radioligand; 10 μM prostaglandin E2 as unlabelled ligand; a three-fold dilution series of compound starting at 10 μM and ending at 0.3 nM is adequate.

| Ki [nM] | Structure (SMILES) |
| --- | --- |
| ≤ 100 | CCOc1c2c(c(OCC)c3ccccc13)C(=O)N(c1ccc(CC(=O)NS(=O)(=O)c3ccccc3C)cc1)C2 [Example 4] |
| ≤ 100 | CCOc1c2c(c(OCC)c3ccccc13)C(=O)N(c1ccc(CC(=O)NS(=O)(=O)c3cccc(Br)c3)cc1)C2 [Example 10] |
| ≤ 100 | CCOc1c2c(c(OCC)c3ccccc13)C(=O)N(c1ccc(CC(=O)NS(=O)(=O)c3ccccc3)cc1)C2=O [Example 15] |
| ≤ 100 | CCOc1c2c(c(OCC)c3ccccc13)C(=O)N(c1ccc(CC(=O)NS(=O)(=O)c3ccccc3)cc1)C2 [Example 3, N-{2-[4-(4,9-diethoxy-1-oxo-1,3-dihydro-2H-benzo[f]isoindol-2-yl)phenyl]acetyl}benzenesulfonamide] |
| ≤ 100 | CCOc1c2c(c(OCC)c3ccccc13)C(=O)N(c1ccc(CC(=O)NS(=O)(=O)c3ccc(F)cc3)cc1)C2 [Example 1, N-{[4-(4,9-diethoxy-1-oxo-1,3-dihydro-2H-benzo[f]isoindol-2-yl)phenyl]acetyl}-4-fluorobenzenesulfonamide] |
| ≤ 100 | CCOc1c2c(c(OCC)c3ccccc13)C(=O)N(c1ccc(CC(=O)NS(=O)(=O)c3ccc4ccccc4c3)cc1)C2 [Example 37] |
| ≤ 100 | CCOc1c2c(c(OCC)c3ccccc13)C(=O)N(c1ccc(CC(=O)NS(=O)(=O)c3cccs3)cc1)C2 [Example 35] |
| ≤ 100 | CCOc1c2c(c(OCC)c3ccccc13)C(=O)N(c1ccc(CC(=O)NS(=O)(=O)c3cc(Br)ccc3OC)cc1)C2 [Example 12] |
| ≤ 100 | CCOc1c2c(c(OCC)c3ccccc13)C(=O)N(c1ccc(CC(=O)NS(=O)(=O)c3cccc(Cl)c3)cc1)C2=O [Example 16] |
| ≤ 100 | CCOC(=O)CS(=O)(=O)NC(=O)Cc1ccc(N2Cc3c(c(OCC)c4ccccc4c3OCC)C2=O)cc1 [Example 34] |
| ≤ 100 | CCOc1c2c(c(OCC)c3ccccc13)C(=O)N(c1ccc(CC(=O)NS(=O)(=O)c3ccccc3C)cc1)C2=O [Example 14] |
| ≤ 100 | CCOc1c2c(c(OCC)c3ccccc13)C(=O)N(c1ccc(CC(=O)NS(=O)(=O)c3cccnc3)cc1)C2 [Example 30] |
| ≤ 100 | CCOc1c2c(c(OCC)c3ccccc13)C(=O)N(c1ccc(CC(=O)NS(=O)(=O)c3ccc(C)cc3OC)cc1)C2 [Example 9] |
| ≤ 100 | CCOc1c2c(c(OCC)c3ccccc13)C(=O)N(c1ccc(CC(=O)NS(=O)(=O)c3cccc(OC)c3)cc1)C2 [Example 13] |
